Source: a melting point compilation (Tetko et al.; mined from patent text by program, amines drawn as free bases though some values may be those of a salt)

melting point	Compound
66 to 67 °C	Brc1cnc(SCc2ccccc2)nc1SCc1ccccc1
61 to 62 °C	Cc1cc(CCCOc2c(C)cc(-c3noc(C(F)(F)F)n3)cc2C)on1
140 to 142 °C	Cn1cccc1CCNc1nc(-c2cccnc2)nc2ccccc12
198 to 200 °C	N#Cc1cc(F)ccc1-c1cncc(OC2SCC(O)C(O)C2O)c1 (centres undefined)
257 to 259 °C	O=C(O)Cc1c(C(=O)O)c2cc(Oc3ccc(C(F)(F)F)cc3)ccc2n1-c1ccc(N2CCOCC2)cc1
144 to 146 °C	CCOC(=O)Nc1cc2c(cc1F)nc(C(F)(F)F)n2Cc1cccc(Cl)c1
230 to 235 °C	NC1(c2ccccc2)C(=O)Nc2ccc(Cl)cc21 (centres undefined)
130 °C	COc1cccc2c(C(F)(F)F)cc(N3CCNCC3)nc12
159 to 161 °C	CC(C)(C)c1cc(CCCO)cc(-n2nc3ccc(S(=O)(=O)c4ccccc4)cc3n2)c1O
183 to 185 °C	Nc1sc2c(c1C(=O)c1ccc3ccccc3c1)CCN(Cc1ccccc1F)C2
78.5 to 80 °C	CC1=CC(N(C)Cc2ccccc2)C(O)C(C)(C)CC1=O (centres undefined)
103 to 104 °C	N[C@@H](Cc1cccc(OC(F)(F)C(F)F)c1)[C@H](O)c1ccc(F)nc1 (racemic)
216 to 217 °C	COC(=O)c1cc(C(=O)NCCF)c2cc(Cc3ccc(F)cc3)cnc2c1O
107 to 108 °C	O=C(O)Cc1ccc2c(c1)CCC(C(F)(F)F)N2 (centres undefined)
144 to 145 °C	CC(=O)Nc1c(C(=O)c2ccccc2)[nH]c2cc(F)ccc12
129 °C	COc1ccc(COc2cccc(C(=O)O)c2OCc2ccc(OC)cc2)cc1
116 to 117 °C	O=C(O)CCc1cn(Cc2ccc(OCc3cccnc3)cc2)nc1OCc1cccnc1
266 to 267 °C	CSc1ccc2c(c1)Cc1ccc(C(=O)O)cc1O2
173 to 174 °C	NC(=O)c1ccc(OCCNCC(O)COc2ccc(-c3csnn3)cc2)cc1 (centres undefined)
200 to 202 °C	COc1ccc2c(c1)Cc1cc(CC(=O)O)ccc1-2
85 to 88 °C	CCOC(=O)COc1ccc(SCc2cccc3[nH]c(-c4ccc(C(F)(F)F)cc4)cc23)cc1C
138 to 140 °C	O=C(Nc1ccc(-n2nc(C(F)(F)F)cc2C(F)(F)F)cc1)c1cc(F)c(F)c(F)c1F

More lines, now with the values behind:

Compound	melting point
CN1C(=O)CC[C@]2(C)c3ccc(-c4cccc([N+](=O)[O-])c4)cc3CC[C@@H]12	181 to 183 °C
CCOP(=O)(OCC)C(P(=O)(OCC)OCC)S(=O)(=O)c1cc(C(C)(C)C)c(O)c(C(C)(C)C)c1	118 to 120 °C
COC(=O)c1cccc(-n2cccc2)n1	61 °C
CC(C)(C)c1ccc(Cl)c(C(=O)O)c1	99 to 103 °C
Cc1ccc(CC(C(=O)NC(Cc2ccc(C#N)cc2)C(=O)N(C)C)S(=O)(=O)Nc2cccc3ccccc23)c(C)c1 (centres undefined)	140 °C
CC(=O)Oc1ccc(C=CC(=O)C=Cc2ccc(OC(C)=O)c(OC(C)=O)c2)cc1OC(C)=O	70 to 72 °C
Cc1c(C)c2c(c(C)c1N)CC(C)(CN1CCN(c3ccccc3)CC1)O2 (centres undefined)	94 to 95 °C
CCCCCCCCCCCC(=O)NC(=O)OCc1nc(C(C)C)c(Sc2cc(Cl)cc(Cl)c2)n1CC	100 to 102 °C
CCCCCCCCCCCCNc1ccnc(Cl)n1	80 to 82 °C
CCOC(=O)c1cc2sc(N=CN(C)C)c(C#N)c2s1	168 °C
COc1ccc(CNc2nn(CC(=O)O)c(=O)c3ccc(C#N)cc23)cc1Cl	173 to 175 °C
COC1CC2(C)C(CCC3C4CC=C(C(C)=O)C4(C)CCC32)CC1O (centres undefined)	183 to 187 °C
Cc1ccc(-c2ccc3c(c2)C=C(C(=O)O)CCO3)cc1	255 to 256 °C
Cc1cc(C(O)(C(F)(F)F)C(F)(F)F)cc(C)c1NCCO	110 to 113 °C
CC(C)COc1ccc(S(C)(=O)=O)cc1C(=O)O	149 to 153 °C
COC(=O)c1cc(CCN(C)CCCC(C#N)(c2ccc(OC)c(OC)c2)C(C)C)ccc1OC (centres undefined)	76 to 81 °C
O=C(O)C1Oc2cc(Cl)c(S(=O)(=O)c3cc(Cl)cc(Cl)c3)cc2O1 (centres undefined)	166 to 169 °C
CCOC(=O)Cc1cc(Br)c(SC(=O)N(C)C)c(Br)c1	105 to 107 °C
O=C1Nc2cc(Cl)ccc2Oc2cscc21	263 to 265 °C
COc1ccccc1NC(=O)Nc1nc2c(s1)CN(C)CC2	201 to 203 °C
CCN1c2ncc(CCc3ccncc3)cc2C(=O)N(C)c2ccc(I)nc21	174 °C
Cc1c(-c2ccccc2)oc2c(CCl)cccc2c1=O	112 to 113 °C
CON=C(C(=O)OC)c1ccc(O)c([N+](=O)[O-])c1	93 to 95 °C
CCCCCCCC1CC(C(=O)O)C(=O)O1 (centres undefined)	51 to 54 °C
CS(=O)c1ccc(-c2nc(S)[nH]c2-c2ccc(S(C)=O)cc2)cc1 (centres undefined)	261 to 262 °C
O=[N+]([O-])c1ccc(NCC23CCCN2CCC3)c2ccccc12	143 to 144 °C
CCN(CC)C(=O)COC(=O)/C=C/C(=O)OC	53 to 56 °C
